Measurements as given in patent publication US20250057860A1, “READY-TO-DILUTE FORMULATION” (priority 2021, published 2025).

Experiments:
[1] = Solubility of remdesivir in water in the presence of surfactants; format: physicochemical
Experimental: The effect of various surfactants on the solubility of remdesivir in water was also tested.

[2] = Initial screening: effect of excipients on remdesivir solubility; format: physicochemical
[3] = cited from earlier work

## remdesivir
[1]; water with Kolliphor EL (Polyoxyl 35 Castor Oil; Cremophor) 0.10 % w/w
  Remdesivir Solubility: 0.020 mg/mL
[1]; water with Poloxamer P407 0.07 % w/w
  Remdesivir Solubility: 0.006 mg/mL
[1]; water with TWEEN 20 (Polysorbate 20) 0.16 % w/w
  Remdesivir Solubility: 0.016 mg/mL
[1]; water with TWEEN 80 (Polysorbate 80) 0.30 % w/w
  Remdesivir Solubility: 0.033 mg/mL
[2]; in Benzyl Alcohol
  Solubility: ≥56 mg/mL
[2]; in Ethanol
  Solubility: ≥21 mg/mL
[2]; in N-methyl pyrrolidone
  Solubility: > 100 mg/mL
[2]; in N-methyl-2-pyrrolidone (NMP)
  Solubility: ≥112 mg/mL
[2]; in NMP + Ethanol
  Solubility: ≥226 mg/mL
[2]; in PEG 300
  Solubility: ≥39 mg/mL
[2]; in PEG 400
  Solubility: ≥16 mg/mL
[2]; in PEG 400 + Glycerol (3:5)
  Solubility: 0.011 mg/mL
[2]; in PEG 400 + Glycerol (3:10)
  Solubility: 0.0008 mg/mL
[2]; in PEG 600
  Solubility: ≥6.2 mg/mL
[2]; in PEG 1000
  Solubility: ≥6.3 mg/mL
[2]; in Peppermint Oil
  Solubility: 15.9 mg/mL
[2]; in Plasdone (PVP) + PEG 300
  Solubility: ≥66 mg/mL
[2]; in Propylene Glycol
  Solubility: ≥29 mg/mL
[2]; in Soluplus + Ethanol + Water
  Solubility: ≥34 mg/mL
[2]; in Span 20
  Solubility: 0.006 mg/mL
[2]; in Span 80
  Solubility: 0.3 mg/mL
[2]; in low molecular weight polyethylene glycols (PEG 300 and 400) in the presence of low molecular weight PVP
  Solubility: over 50 mg/ml
[3]
  solubility in water (in words): insoluble
